The structures appear in SMILES notation.

The series can be described thus: Half life in air at 10 to 20 ug by HPLC analysis. In kind it is physicochemical.
For orientation: half-life means the time needed for the level to fall by half in the phase considered. High values mean slow loss, low ones fast loss. `CC[C@@H](O)/C=C/C=C\C/C=C\C/C=C\C=C\[C@@H](O)CCCC(=O)O` gave a half-life of 1.5 h. The result for `CC[C@@H](O)/C=C/C=C\C[C@H]1C[C@H]1C/C=C\C=C\[C@@H](O)CCCC(=O)O` reads 35 h. Under `CC[C@@H](O)/C=C/C=C\C[C@@H]1C[C@@H]1C/C=C\C=C\[C@@H](O)CCCC(=O)O` stands 35 h.

The values above are taken from ChEMBL document CHEMBL4152181, “Resolvins as proresolving inflammatory mediators in cardiovascular disease” (Eur J Med Chem, 2018).
